Test results from patent publication US7563899B2, “(S)-N-methylnaltrexone” (Progenics Pharmaceuticals, Inc., priority 2005, dated 2009).

Key:
[1] = target: μ-opioid receptors in the guinea pig ileum (Cavia porcellus, UniProt A0ACM8Q262); assay: Guinea pig ileum bioassay, test for agonist activity (inhibition of electrically evoked twitch contractions); settings: mean, n=2; for Response to the compound (decrease in twitch contraction amplitude): percent of control response to DAMGO 1.0E−07 M
Experimental: Experimental Conditions. Segments of guinea pig terminal ileum were suspended in 20-ml organ baths filled with an oxygenated (95% O2 and 5% CO2) and pre-warmed (37° C.) physiological salt solution of the following composition (in mM): NaCl 118.0, KCl 4.7, MgSO4 1.2, CaCl2 2.5, KH2PO4 1.2, NaHCO3 25.0 and glucose 11.0 (pH 7.4). Additional experimental conditions were as described in Hutchinson et al. (1975) Brit. J. Pharmacol., 55: 541-546.
Indomethacin (1 μM), nor-binaltorphimine (0.01 μM), methysergide (1 μM), ondansetron (10 μM) and GR113808 (0.1 μM) were also present throughout the experiments to prevent prostanoid release and to block the k-opioid, 5-HT2, 5-HT3 and 5-HT4 receptors, respectively. The tissues were connected to force transducers for isometric tension recordings. They were stretched to a resting tension of 1 g then allowed to equilibrate for 60 min during which time they were washed repeatedly and the tension readjusted. Thereafter, they were stimulated electrically with pulses of minimal intensity to trigger maximal contractions and 1 ms duration, delivered at 0.1 Hz by a constant current stimulator.
Test for agonist activity. […] The different concentrations were added cumulatively and each was left in contact with the tissues until a stable response was obtained or for a maximum of 15 min.
Analysis and Expression of Results. The parameter measured was the maximum change in the amplitude of the electrically-evoked twitch contractions induced by each compound concentration.

[2] = target: T1, human μ (mu, MOP) receptor (Homo sapiens, UniProt P35372); assay: cAMP assay in CHO cells expressing human mu receptor, agonist assay; type: cell-based
T1 construct: expressed in transfected cells; host or cells: CHO cells
T1 sequence (P35372 whole entry): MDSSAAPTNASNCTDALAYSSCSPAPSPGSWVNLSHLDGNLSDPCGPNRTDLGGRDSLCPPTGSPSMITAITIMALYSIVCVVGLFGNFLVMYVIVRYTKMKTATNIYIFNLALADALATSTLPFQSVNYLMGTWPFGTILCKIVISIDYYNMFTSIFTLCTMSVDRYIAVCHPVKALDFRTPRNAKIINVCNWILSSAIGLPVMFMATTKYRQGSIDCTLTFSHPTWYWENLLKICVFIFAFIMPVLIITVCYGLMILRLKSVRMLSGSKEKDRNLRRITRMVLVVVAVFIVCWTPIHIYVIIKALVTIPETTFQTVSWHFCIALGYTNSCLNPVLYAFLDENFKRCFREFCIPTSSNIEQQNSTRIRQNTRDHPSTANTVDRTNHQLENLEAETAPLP

[3] = test system: gastrointestinal transit in rats; assay: Gastrointestinal transit (charcoal motility) in rats, alone or before morphine; type: in vivo, rat; settings: for Mean Motility: ratio of length of charcoal transit/total intestine length, * p<0.05 vs vehicle
Experimental: F. et al J. Pharmacol. Exptl. Therap. 133: 400-408, 1961; D. E. Gmerek, et al J. Pharmacol. Exptl. Ther. 236: 8-13, 1986; and O. Yamamoto et al Neurogastroenterol. Motil. 10: 523-532, 1998.
A control group of rats received 2 mL/kg of a 0.9% saline solution (n=10). After 15 minutes, rats were subcutaneously injected with saline (1 mL/kg) or morphine (3 mg/kg). A 10% suspension of activated charcoal in 0.25% methylcellulose was administered orally at 10 mL/kg to the rats 20 minutes (±2 minutes) after the subcutaneous dose of morphine or saline. The rats were euthanized 25 minutes (±3 minutes) after receiving the charcoal and the intestines were removed and lightly stretched on moist paper along a meterstick. The small intestine from pyloric sphincter to caecum was measured and the distance traveled by the charcoal as a fraction of that length was evaluated for each rat.
Statistically significant effects were determined by ANOVA with Tukey HSD Multiple Comparison Test. Differences with p values <0.05 were considered statistically significant.
Values for charcoal motility were expressed as a percent effect and were calculated in the following manner: The individual distance traveled by the charcoal in centimeters was divided by the total length of the intestines in centimeters (pyloric sphincter to caecum) for each rat. Mean values were calculated for each group, and the percent effect was calculated using the following formula: […]

[4] = 1 mg/kg sc + Morphine 3 mg/kg sc
[5] = 3 mg/kg sc + Morphine 3 mg/kg sc
[6] = 10 mg/kg sc + Morphine 3 mg/kg sc

μ-opioid receptors in the guinea pig ileum, sequence (A0ACM8Q262 1-400): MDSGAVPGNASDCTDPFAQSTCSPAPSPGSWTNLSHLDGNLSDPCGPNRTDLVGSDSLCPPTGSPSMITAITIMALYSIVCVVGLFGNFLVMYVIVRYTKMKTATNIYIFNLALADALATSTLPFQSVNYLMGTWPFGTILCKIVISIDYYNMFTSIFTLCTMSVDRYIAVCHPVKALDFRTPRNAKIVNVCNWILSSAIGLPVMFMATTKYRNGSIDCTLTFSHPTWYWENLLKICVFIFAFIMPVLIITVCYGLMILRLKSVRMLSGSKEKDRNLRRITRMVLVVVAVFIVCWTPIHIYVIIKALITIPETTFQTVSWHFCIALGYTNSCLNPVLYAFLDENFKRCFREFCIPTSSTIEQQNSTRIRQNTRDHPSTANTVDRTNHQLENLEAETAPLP

Structure (SMILES): C[C@@H](NC(=O)[C@@H](N)Cc1ccc(O)cc1)C(=O)NCC(=O)N(C)[C@@H](Cc1ccccc1)C(=O)NCCO [DAMGO, reference compound]
- Response to the compound (decrease in twitch contraction amplitude) ([1]; 1.0E−07 M): 99%
- Response to the compound (decrease in twitch contraction amplitude) ([1]; 1.0E−08 M): 49%
- Response to the compound (decrease in twitch contraction amplitude) ([1]; 1.0E−09 M): 12%
- Response to the compound +naloxone ([1]; compound 1.0E−07 M + naloxone 1.0E−07 M, percent of control response to DAMGO): 3%
- cAMP agonist assay value (Table IX.1) ([2]; log{M} conc −4.0): −1
- cAMP agonist assay value (Table IX.1) ([2]; log{M} conc −5.0): 2
- cAMP agonist assay value (Table IX.1) ([2]; log{M} conc −6.0): 1
- cAMP agonist assay value (Table IX.1) ([2]; log{M} conc −7.0): 2
- cAMP agonist assay value (Table IX.1) ([2]; log{M} conc −8.0): 68
- cAMP agonist assay value (Table IX.1) ([2]; log{M} conc −9.0): 63
- cAMP agonist assay value (Table IX.1) ([2]; log{M} conc −10.0): 88
- cAMP agonist assay value (Table IX.1) ([2]; log{M} conc −11.0): 105

Structure (SMILES): CN1CC[C@]23c4c5ccc(O)c4O[C@H]2[C@@H](O)C=C[C@H]3[C@H]1C5 [Morphine, morphine]
- Percent Decrease ([3]; Saline + Morphine 3 mg/kg sc): 33%
- Mean Motility ([3]; Saline + Morphine 3 mg/kg sc): 0.407*
- effect on GI transit when administered alone ([3]; rats, sc): decreased GI motility

Structure (SMILES): C[N+]1(CC2CC2)CC[C@]23c4c5ccc(O)c4O[C@H]2C(=O)CC[C@@]3(O)[C@H]1C5 (stereo partly drawn) [R-MNTX, (R)-N-methylnaltrexone]
- Percent Decrease [3, 4]: 24%
- Mean Motility [3, 4]: 0.463*
- Percent Decrease [3, 5]: 8%
- Mean Motility [3, 5]: 0.558
- Percent Decrease [3, 6]: 8%
- Mean Motility [3, 6]: 0.557
- Percent Decrease ([3]; 10 mg/kg sc + Saline): 6%
- Mean Motility ([3]; 10 mg/kg sc + Saline): 0.572
- effect on GI transit in combination with / prior to morphine ([3]; rats, sc, 15 minutes before morphine 3 mg/kg): reversed the GI slowing effect of morphine
- effect on GI transit when administered alone ([3]; rats, sc): no effect on GI transit
